From publication PMC7600006, “Dissecting the Cytochrome P450 OleP Substrate Specificity: Evidence for a Preferential Substrate” (Biomolecules, 2020)

Columns and labels:
cytochrome P450 OleP [1] = molecular target: T1, cytochrome P450 OleP (Streptomyces antibioticus, UniProt Q59819); assay: UV-visible equilibrium titration (Type I Soret shift); crystal structure of the ternary complex with L-rhamnose ([…] Å); format: binding
T1 construct: wild type enzyme
T1 sequence (Q59819 1-407): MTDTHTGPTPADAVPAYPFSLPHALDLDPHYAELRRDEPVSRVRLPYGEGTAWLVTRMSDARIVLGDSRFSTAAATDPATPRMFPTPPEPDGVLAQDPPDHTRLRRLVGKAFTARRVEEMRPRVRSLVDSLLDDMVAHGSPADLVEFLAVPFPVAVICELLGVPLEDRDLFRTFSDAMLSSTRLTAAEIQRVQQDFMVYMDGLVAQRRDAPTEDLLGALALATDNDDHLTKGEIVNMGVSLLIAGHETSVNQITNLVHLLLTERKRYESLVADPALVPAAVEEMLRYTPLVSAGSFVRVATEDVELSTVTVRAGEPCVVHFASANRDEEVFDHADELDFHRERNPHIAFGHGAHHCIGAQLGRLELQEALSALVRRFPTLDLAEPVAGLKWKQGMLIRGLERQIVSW

cytochrome P450 OleP [2] = molecular target: T1, cytochrome P450 OleP; assay: UV-visible equilibrium titration (Type I Soret shift); crystal structures 6ZHZ, 6ZI2 and 6ZI7; format: binding

| Structure (SMILES) | Kd (cytochrome P450 OleP [1]) | Kd (cytochrome P450 OleP [2]) |
| --- | --- | --- |
| CC[C@H]1OC(=O)[C@H](C)[C@@H](O)[C@H](C)[C@@H](O)[C@@H](C)C[C@@H](C)C(=O)[C@H](C)[C@@H](O)[C@H]1C [6DEB, 6-deoxyerythronolide B] | 3.2 ± 0.1 µM |  |
| C[C@@H]1[C@@H](O)[C@@H](C)C[C@H](C)C(=O)[C@H](C)[C@@H](O)[C@@H](C)[C@@H](C)OC(=O)[C@H](C)[C@H]1O [DEO, 8.8a-deoxyoleandolide] |  | 23 ± 2 µM |
